Laboratory results as given in PubChem BioAssay AID1963846 (Molecular Pharmacology Branch, DTP, NCI, 2024).

Tested on: 454973-116-R2-J3-PDC complex spheroid viability
Experiment: Anticancer human tumor 454973-116-R2-J3-PDC patient-derived pancreatic carcinoma cell line growth inhibition [POLQ]
Conditions: for IC50: curve of first compound; for viability, T/C: stronger effect = lower value
In short: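 Complex spheroid viability model combining PDC tumour cells with endothelial (HUVEC) and MSC stromal cells. Novobiocin, ART-558 or RP6685 were tested singly and in combination with standard and investigational anticancer drugs. Each was titrated in half-log steps from near clinical Cmax, or from 10 microM where Cmax was unknown.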

[1] = second compound 0.0316 µM, first compound 0.00316 µM
[2] = second compound 0.0316 µM, first compound 0.01 µM
[3] = second compound 0.0316 µM, first compound 0.0316 µM
[4] = second compound 0.0316 µM, first compound 0.1 µM
[5] = second compound 0.1 µM, first compound 0.00316 µM
[6] = second compound 0.1 µM, first compound 0.01 µM
[7] = second compound 0.1 µM, first compound 0.0316 µM
[8] = second compound 0.1 µM, first compound 0.1 µM
[9] = second compound 0.316 µM, first compound 0.00316 µM
[10] = second compound 0.316 µM, first compound 0.01 µM
[11] = second compound 0.316 µM, first compound 0.0316 µM
[12] = second compound 0.316 µM, first compound 0.1 µM
[13] = second compound 1 µM, first compound 0.00316 µM
[14] = second compound 1 µM, first compound 0.01 µM
[15] = second compound 1 µM, first compound 0.0316 µM
[16] = second compound 1 µM, first compound 0.1 µM
[17] = second compound 3.16 µM, first compound 0.00316 µM
[18] = second compound 3.16 µM, first compound 0.01 µM
[19] = second compound 3.16 µM, first compound 0.0316 µM
[20] = second compound 3.16 µM, first compound 0.1 µM
[21] = second compound 10 µM, first compound 0.00316 µM
[22] = second compound 10 µM, first compound 0.01 µM
[23] = second compound 10 µM, first compound 0.0316 µM
[24] = second compound 10 µM, first compound 0.1 µM
[25] = second compound 0.0316 µM, first compound 0.316 µM
[26] = second compound 0.0316 µM, first compound 1 µM
[27] = second compound 0.1 µM, first compound 0.316 µM
[28] = second compound 0.1 µM, first compound 1 µM
[29] = second compound 0.316 µM, first compound 0.316 µM
[30] = second compound 0.316 µM, first compound 1 µM
[31] = second compound 1 µM, first compound 0.316 µM
[32] = second compound 1 µM, first compound 1 µM
[33] = second compound 3.16 µM, first compound 0.316 µM
[34] = second compound 3.16 µM, first compound 1 µM
[35] = second compound 10 µM, first compound 0.316 µM
[36] = second compound 10 µM, first compound 1 µM
[37] = second compound 0.0316 µM, first compound 3.16 µM
[38] = second compound 0.0316 µM, first compound 10 µM
[39] = second compound 0.1 µM, first compound 3.16 µM
[40] = second compound 0.1 µM, first compound 10 µM
[41] = second compound 0.316 µM, first compound 3.16 µM
[42] = second compound 0.316 µM, first compound 10 µM
[43] = second compound 1 µM, first compound 3.16 µM
[44] = second compound 1 µM, first compound 10 µM
[45] = second compound 3.16 µM, first compound 3.16 µM
[46] = second compound 3.16 µM, first compound 10 µM
[47] = second compound 10 µM, first compound 3.16 µM
[48] = second compound 10 µM, first compound 10 µM
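Further: spheroids exposed to drugs for seven days before measurement.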
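Wherever viability, T/C is given: percent viability relative to DMSO vehicle control wells taken as 100%.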

In the case of `CC[C@@]1(O)C(=O)OCc2c1cc1n(c2=O)Cc2cc3c(CN(C)C)c(O)ccc3nc2-1` + COC1C(OC(N)=O)C(O)C(Oc2ccc3c(O)c(NC(=O)c4ccc(O)c(CC=C(C)C)c4)c(=O)oc3c2C)OC1(C)C, the IC50 (second compound 0.0316 µM) is reported as 20 nM, the IC50 (second compound 0.1 µM) is reported as 17.8 nM and the IC50 (second compound 0.316 µM) is reported as 18.4 nM. For the same compound, the IC50 (second compound 1 µM) was 18.9 nM, the IC50 (second compound 3.16 µM) was 18.3 nM and the IC50 (second compound 10 µM) was 17.5 nM. It also gave a viability, T/C (second compound 0.0316 µM, first compound 0.000316 µM) of 113%, a viability, T/C (second compound 0.0316 µM, first compound 0.001 µM) of 106% and a viability, T/C [1] of 105%. It also gave a viability, T/C [2] of 86.8%, a viability, T/C [3] of 25.5% and a viability, T/C [4] of 14.9%. The viability, T/C (second compound 0.1 µM, first compound 0.000316 µM) was 106%, the viability, T/C (second compound 0.1 µM, first compound 0.001 µM) was 106% and the viability, T/C [5] was 103%. It also gave a viability, T/C [6] of 82.6%, a viability, T/C [7] of 17.1% and a viability, T/C [8] of 16.3%. The viability, T/C (second compound 0.316 µM, first compound 0.000316 µM) was 109%, the viability, T/C (second compound 0.316 µM, first compound 0.001 µM) was 100% and the viability, T/C [9] was 108%. The viability, T/C [10] was 88.9%, the viability, T/C [11] was 15.8% and the viability, T/C [12] was 13.8%. The viability, T/C (second compound 1 µM, first compound 0.000316 µM) was 113%, the viability, T/C (second compound 1 µM, first compound 0.001 µM) was 101% and the viability, T/C [13] was 108%. The viability, T/C [14] was 91.1%, the viability, T/C [15] was 15.8% and the viability, T/C [16] was 18.1%. For the same compound, the viability, T/C (second compound 3.16 µM, first compound 0.000316 µM) was 110%, the viability, T/C (second compound 3.16 µM, first compound 0.001 µM) was 113% and the viability, T/C [17] was 107%. For the same compound, the viability, T/C [18] was 79.6%, the viability, T/C [19] was 22.8% and the viability, T/C [20] was 19%. The viability, T/C (second compound 10 µM, first compound 0.000316 µM) was 109%, the viability, T/C (second compound 10 µM, first compound 0.001 µM) was 104% and the viability, T/C [21] was 99.9%. The viability, T/C [22] was 76.5%, the viability, T/C [23] was 21.4% and the viability, T/C [24] was 20.3%.
In the case of `CCc1c2c(nc3ccc(O)cc13)-c1cc3c(c(=O)n1C2)COC(=O)[C@]3(O)CC` + COC1C(OC(N)=O)C(O)C(Oc2ccc3c(O)c(NC(=O)c4ccc(O)c(CC=C(C)C)c4)c(=O)oc3c2C)OC1(C)C, the IC50 (second compound 0.0316 µM) is reported as under 3.16 nM, the IC50 (second compound 0.1 µM) is reported as under 3.16 nM and the IC50 (second compound 0.316 µM) is reported as under 3.16 nM. The IC50 (second compound 1 µM) was under 3.16 nM, the IC50 (second compound 3.16 µM) was under 3.16 nM and the IC50 (second compound 10 µM) was under 3.16 nM. It also gave a viability, T/C [1] of 37.3%, a viability, T/C [2] of 16.3% and a viability, T/C [3] of 8.76%. For the same compound, the viability, T/C [4] was 4.34%, the viability, T/C [25] was 4.57% and the viability, T/C [26] was 0.92%. The viability, T/C [5] was 38.9%, the viability, T/C [6] was 13.7% and the viability, T/C [7] was 10.5%. It also gave a viability, T/C [8] of 6.92%, a viability, T/C [27] of 2.75% and a viability, T/C [28] of 1.04%. The viability, T/C [9] was 37.1%, the viability, T/C [10] was 15.8% and the viability, T/C [11] was 14.7%. It also gave a viability, T/C [12] of 4.68%, a viability, T/C [29] of 2.98% and a viability, T/C [30] of 1.19%. It also gave a viability, T/C [13] of 34.1%, a viability, T/C [14] of 14.2% and a viability, T/C [15] of 12.5%. The viability, T/C [16] was 6.32%, the viability, T/C [31] was 3.96% and the viability, T/C [32] was 3.08%. The viability, T/C [17] was 31.2%, the viability, T/C [18] was 13.9% and the viability, T/C [19] was 9.37%. The viability, T/C [20] was 4.13%, the viability, T/C [33] was 2.03% and the viability, T/C [34] was 2.74%. The viability, T/C [21] was 29.1%, the viability, T/C [22] was 15.1% and the viability, T/C [23] was 11.4%. The viability, T/C [24] was 6.62%, the viability, T/C [35] was 3.37% and the viability, T/C [36] was 1.53%.
`Nc1ccn(C2OC(CO)C(O)C2(F)F)c(=O)n1` (stereo not drawn) + COC1C(OC(N)=O)C(O)C(Oc2ccc3c(O)c(NC(=O)c4ccc(O)c(CC=C(C)C)c4)c(=O)oc3c2C)OC1(C)C was tested, and the IC50 (second compound 0.0316 µM) was under 31.6 nM, the IC50 (second compound 0.1 µM) was under 31.6 nM and the IC50 (second compound 0.316 µM) was under 31.6 nM. It also gave an IC50 (second compound 1 µM) of under 31.6 nM, an IC50 (second compound 3.16 µM) of under 31.6 nM and an IC50 (second compound 10 µM) of under 31.6 nM. The viability, T/C [3] was 14.4%, the viability, T/C [4] was 8.27% and the viability, T/C [25] was 11.6%. It also gave a viability, T/C [26] of 11.3%, a viability, T/C [37] of 11.7% and a viability, T/C [38] of 12.9%. The viability, T/C [7] was 12.6%, the viability, T/C [8] was 11.2% and the viability, T/C [27] was 10.2%. For the same compound, the viability, T/C [28] was 11.4%, the viability, T/C [39] was 11.2% and the viability, T/C [40] was 10.5%. The viability, T/C [11] was 10.3%, the viability, T/C [12] was 9.75% and the viability, T/C [29] was 10.9%. The viability, T/C [30] was 11%, the viability, T/C [41] was 15.1% and the viability, T/C [42] was 10.2%. It also gave a viability, T/C [15] of 12%, a viability, T/C [16] of 11.9% and a viability, T/C [31] of 13.1%. The viability, T/C [32] was 13.4%, the viability, T/C [43] was 11.2% and the viability, T/C [44] was 14.5%. The viability, T/C [19] was 12.2%, the viability, T/C [20] was 15.2% and the viability, T/C [33] was 11.4%. For the same compound, the viability, T/C [34] was 10.9%, the viability, T/C [45] was 11% and the viability, T/C [46] was 11.1%. The viability, T/C [23] was 13.2%, the viability, T/C [24] was 10.8% and the viability, T/C [35] was 12.5%. The viability, T/C [36] was 12.4%, the viability, T/C [47] was 11.9% and the viability, T/C [48] was 12%.
`O=c1[nH]cc(F)c(=O)[nH]1` + COC1C(OC(N)=O)C(O)C(Oc2ccc3c(O)c(NC(=O)c4ccc(O)c(CC=C(C)C)c4)c(=O)oc3c2C)OC1(C)C was tested, and the IC50 (second compound 0.0316 µM) was 4110 nM, the IC50 (second compound 0.1 µM) was 4800 nM and the IC50 (second compound 0.316 µM) was 4270 nM. The IC50 (second compound 1 µM) was 4010 nM, the IC50 (second compound 3.16 µM) was 5630 nM and the IC50 (second compound 10 µM) was 3270 nM. For the same compound, the viability, T/C [3] was 104%, the viability, T/C [4] was 104% and the viability, T/C [25] was 110%. The viability, T/C [26] was 100%, the viability, T/C [37] was 55.6% and the viability, T/C [38] was 31.2%. The viability, T/C [7] was 105%, the viability, T/C [8] was 108% and the viability, T/C [27] was 106%. It also gave a viability, T/C [28] of 98%, a viability, T/C [39] of 60.6% and a viability, T/C [40] of 31.4%. It also gave a viability, T/C [11] of 112%, a viability, T/C [12] of 108% and a viability, T/C [29] of 108%. It also gave a viability, T/C [30] of 96.9%, a viability, T/C [41] of 55.2% and a viability, T/C [42] of 34.9%. It also gave a viability, T/C [15] of 112%, a viability, T/C [16] of 111% and a viability, T/C [31] of 110%. The viability, T/C [32] was 96.4%, the viability, T/C [43] was 53.9% and the viability, T/C [44] was 35.1%. For the same compound, the viability, T/C [19] was 112%, the viability, T/C [20] was 118% and the viability, T/C [33] was 113%. The viability, T/C [34] was 97.6%, the viability, T/C [45] was 63.4% and the viability, T/C [46] was 36.9%. It also gave a viability, T/C [23] of 111%, a viability, T/C [24] of 108% and a viability, T/C [35] of 109%. It also gave a viability, T/C [36] of 100%, a viability, T/C [47] of 50.6% and a viability, T/C [48] of 31.3%.
